Data taken from patent US6878742B2, “Heterocyclic sulfonamide inhibitors of beta amyloid production” (Wyeth, priority 2000, dated 2005).
“And” between values parts separate entries of the source, which are not always exact repeats. Equal values may be shown once.

Each compound was assayed on amyloid precursor protein (APP) proteolysis (assay: Repressor Release Assay (RRA)). Conditions: Conc 1 μg/mL; luciferase activity over diluent control.
Assay type: cell-based
Method in brief: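 CHO-K1 cells grown in DMEM with 10% fetal bovine serum were transiently co-transfected with pRSVO-luc and APP-lacI constructs via Lipofectamine Plus, plated into opaque 96-well plates, and exposed to diluted compound in duplicate for 36-48 hours at 37° C. LucLite luciferase signal was read on a TopCount and expressed as fold increase in relative light units over Hepes/DMSO diluent control.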

Compound	APPI Fold Increase [fold]
CC[C@H](C)[C@@H](CO)NS(=O)(=O)c1ccc(Cl)s1 [Example 4]	2.22

Same assay, conditions: Conc 3 μg/mL; luciferase activity over diluent control

Compound	APPI Fold Increase
CC[C@H](C)[C@@H](CO)NS(=O)(=O)c1ccc(Cl)s1 [Example 4]	2.98 fold and 3.52 fold
CCC(C)C(NS(=O)(=O)c1ccc(Cl)s1)C(O)CC (mixture of isomers) [Example 129]	1.61 fold

Same assay, conditions: Conc 10 μg/mL; luciferase activity over diluent control

Compound	APPI Fold Increase
O=S(=O)(N[C@H](CO)CC1CCCCC1)c1ccc(Cl)s1 [Example 95]	1.9 fold
CC[C@H](C)[C@@H](CO)NS(=O)(=O)c1ccc(Cl)s1 [Example 4]	3.3 fold and 5.03 fold
CCC(C)C(NS(=O)(=O)c1ccc(Cl)s1)C(O)CC (mixture of isomers) [Example 129]	7.43 fold and 4.59 fold
C=C(C)C(O)C(NS(=O)(=O)c1ccc(Cl)s1)C(C)CC (mixture of isomers) [Example 133]	2.51 fold and 1.68 fold

Same assay, conditions: Conc 10 μg/mL; luciferase activity over diluent control; read-out: APPI Fold Increase

Compound	fold induction at 10 µg/mL
CCCCCC(O)(CCCCC)[C@@H](NS(=O)(=O)c1ccc(Cl)s1)[C@@H](C)CC [Example 163, 5-chloro-N-{(S)-2-hydroxy-1-[(S)-1-methylpropyl]-2-pentylheptyl}thiophene-2-sulfonamide]	3.3
CC[C@H](C)[C@H](NS(=O)(=O)c1ccc(Cl)s1)C(O)c1ccc(N(C)C)cc1 (stereo partly drawn) [Example 139, 5-chloro-N-{(S,S)-1-[[4-(dimethylamino)phenyl](hydroxy)methyl]-2-methylbutyl}thiophene-2-sulfonamide]	3.97
C=CCCC(O)(CCC=C)[C@@H](NS(=O)(=O)c1ccc(Br)s1)[C@@H](C)CC [Example 176, 5-bromo-N-{(S)-2-but-3-enyl-2-hydroxy-1-[(S)-1-methylpropyl]hex-5-enyl}thiophene-2-sulfonamide]	1.52
CC[C@H](C)[C@H](NS(=O)(=O)c1ccc(Cl)s1)C(O)(c1ccccc1)c1ccccc1 [Example 164, 5-chloro-N-{(S,S)-1-[hydroxy(diphenyl)methyl]-2-methylbutyl}thiophene-2-sulfonamide]	1.72
CC[C@H](C)[C@H](NS(=O)(=O)c1ccc(Br)s1)C(O)(CC)CC [Example 173, 5-bromo-N-{(S)-2-ethyl-2-hydroxy-1-[(S)-1-methylpropyl]butyl}thiophene-2-sulfonamide]	1.5

Same assay, conditions: Conc 20 μg/mL; luciferase activity over diluent control

Compound	APPI Fold Increase
CC[C@H](C)[C@@H](CO)NS(=O)(=O)c1cccs1 [Example 210, N-[(1S,2S)-1-(Hydroxymethyl)-2-methylbutyl]thiophene-2-sulfonamide]	7.7 fold
CCC[C@H](O)[C@@H](NS(=O)(=O)c1ccc(Br)s1)[C@@H](C)CC [Example 192, 5-bromo-N-{(S,S)-2-hydroxy-1-[(S)-1-methylpropyl]pentyl}thiophene-2-sulfonamide]	2.2 fold and 1.9 fold and 1.7 fold
CC[C@H](C)[C@@H](CO)NS(=O)(=O)c1ccc(Cl)s1 [Example 4]	4 fold and 5.4 fold and 3.3 fold and 5.1 fold

Same assay, conditions: Conc 20 μg/mL; luciferase activity over diluent control; read-out: APPI Fold Increase

Compound	fold induction at 20 µg/mL
CCCCCC[C@@H](CC)[C@@H](CO)NS(=O)(=O)c1ccc(Cl)s1 [Example 77A, 5-Chloro-N-[(1S,2R)-2-ethyl-1-(hydroxymethyl)octyl]thiophene-2-sulfonamide]	3.1
CSCC[C@@H](CO)NS(=O)(=O)c1ccc(Br)s1 [Example 111, 5-bromo-N-[(S)-1-(hydroxymethyl)-3-(methylthio)propyl]thiophene-2-sulfonamide]	1.8
CCCCC[C@H](CC(C)C)[C@@H](CO)NS(=O)(=O)c1ccc(Cl)s1 [Example 42, 5-chloro-N-[(1S,2R)-1-(hydroxymethyl)-2-isobutylheptyl]thiophene-2-sulfonamide]	3.4
CCCCC[C@H](CC)[C@@H](CO)NS(=O)(=O)c1ccc(Cl)s1 [Example 41, 5-chloro-N-[(1S,2S)-2-ethyl-1-(hydroxymethyl)heptyl]thiophene-2-sulfonamide]	4.7
CC[C@@H](c1ccc(-c2ccccc2)cc1)[C@@H](CO)NS(=O)(=O)c1ccc(Br)s1 [Example 76, N-[(1S,2S)-2-[1,1′-biphenyl]-4-yl-1-(hydroxymethyl)butyl]-5-bromothiophene-2-sulfonamide]	3.2
CC[C@@H](c1ccccc1)[C@@H](CO)NS(=O)(=O)c1ccc(Br)s1 [Example 67, 5-bromo-N-[(1S,2S)-1-(hydroxymethyl)-2-phenylbutyl]thiophene-2-sulfonamide]	4.7
CC(NC1CCCC1)[C@@H](CO)NS(=O)(=O)c1ccc(Cl)s1 (stereo partly drawn) [Example 86, 5-chloro-N-[(1S)-2-(cyclopentylamino)-1-(hydroxymethyl)propyl]-2-thiophenesulfonamide]	20
C[C@@H](O)[C@@H](CO)NS(=O)(=O)c1ccc(Cl)s1 [Example 103, 5-chloro-N-[(R,R)-2-hydroxy-1-(hydroxymethyl)propyl]thiophene-2-sulfonamide]	2.3
CC(C)C[C@@H](C(C)C)[C@@H](CO)NS(=O)(=O)c1ccc(Br)s1 [Example 75, 5-bromo-N-[(1S,2S)-1-(hydroxymethyl)-2-isopropyl-4-methylpentyl]thiophene-2-sulfonamide]	4.7
C[C@@H](c1ccco1)[C@@H](CO)NS(=O)(=O)c1ccc(Cl)s1 [Example 48, 5-chloro-N-[(1S,2R)-2-(2-furyl)-1-(hydroxymethyl)propyl]thiophene-2-sulfonamide]	4.7
O=S(=O)(N[C@H](CO)C1CCC(NCc2ccncc2)CC1)c1ccc(Cl)s1 (stereo partly drawn) [Example 218, 5-chloro-N-[(S)-2-hydroxy-1-(4-(4-pyridyl)methylaminocyclohexyl)ethyl]thiophene-2-sulfonamide]	2.8
O=S(=O)(N[C@H](CO)c1ccccc1)c1ccc(Br)s1 [Example 104, 5-bromo-N-[(S)-2-hydroxy-1-phenylethyl]thiophene-2-sulfonamide]	2.5
CC[C@@H](C(C)C)[C@@H](CO)NS(=O)(=O)c1ccc(Br)s1 [Example 74, 5-bromo-N-[(1S,2S)-2-ethyl-1-(hydroxymethyl)-3-methylbutyl]thiophene-2-sulfonamide]	5.1
CCCOC1CCC([C@@H](CO)NS(=O)(=O)c2ccc(Cl)s2)CC1 (stereo partly drawn) [Example 200, 5-chloro-N-[(S)-2-hydroxy-1-(4-propoxycyclohexyl)ethyl]thiophene-2-sulfonamide]	2
C[C@@H](c1ccc(-c2ccccc2)cc1)[C@@H](CO)NS(=O)(=O)c1ccc(Cl)s1 [Example 53, N-[(1S,2S)-2-[1,1'-biphenyl]-4-yl-1-(hydroxymethyl)propyl]-5-chlorothiophene-2-sulfonamide]	3.9
CC(C)C[C@@H](C)[C@@H](CO)NS(=O)(=O)c1ccc(Cl)s1 [Example 27, 5-Chloro-N-[(1S,2R)-1-(hydroxymethyl)-2,4-dimethylpentyl]thiophene-2-sulfonamide]	8.7
CC(C)C[C@@H](C)[C@@H](CO)NS(=O)(=O)c1ccc(Br)s1 [Example 56, 5-bromo-N-[(1S,2R)-1-(hydroxymethyl)-2,4-dimethylpentyl]thiophene-2-sulfonamide]	6.8
CCOC(=O)CNC1CCC([C@@H](CO)NS(=O)(=O)c2ccc(Cl)s2)CC1 (stereo partly drawn) [Example 220, 5-chloro-N-[(S)-2-hydroxy-1-(4-(carboethoxymethyl)aminocyclohexyl)ethyl]thiophene 2-sulfonamide]	2.5

Same assay, conditions: read-out: APPI Fold Increase

Compound	fold induction at 20 µg/mL
CCCC(C)C(CO)NS(=O)(=O)c1ccc(Cl)s1 (stereo not shown) [Example 20, 5-chloro-N-[1-(hydroxymethyl)-2-methylpentyl]thiophene-2-sulfonamide]	5
